Several values for one entry are separate records, joined by “and”; a condition that tells them apart may be missing. Identical values can stand only once. Entries after “also recorded” stand apart in the source; their conditions may differ.
Assays:
GLP1-R = assay: cAMP content in the brain of naïve P10 mice (blood-brain barrier crossing); type: in vivo
Description: Brains of P10 naive mice or treated at the different time points were collected (n = 4 per group). All samples were processed using AMP direct immunoassay kit as per manufacturer’s instructions (Abcam).

[1] = Blood glucose / hypoglycaemia; type: in vivo, P10 CD1 mice; details: for blood glucose: HI P10 mice
Description: (§1) Thereafter, a dosing experiment was conducted to evaluate the optimal dose for semaglutide in the same neonatal HIE model (Fig. EV2F) and brain protection was measured using a macroscopic scoring system to assess the size of the infarct.
Blood glucose levels (mmol/l) were measured using a blood glucose monitor (CodeFree, SD Biosensor) in naive controls and mice following one semaglutide dose administration (0.25 µg/g) with or without glucose supplementation, intraperitoneally or subcutaneously to determine the best route of administration. Blood samples were collected via cardiac puncture at 0.5 h, 2 h, 24 h, 7 days, and 14 days for glucose test. Brains of P10 naive mice or treated at the different time points were collected (n = 4 per group). All samples were processed using […] as per manufacturer’s instructions (Abcam).

[2] = system: P10 CD1 mice with surgically induced HI; assay: Mortality after semaglutide in neonatal mice with HI; type: in vivo; details: semaglutide 0.5 µg/g (500 µg/kg), no glucose
Description: as §1
The body temperature was maintained using a heating mat. […] The pups were then immediately returned to the dam. […] 1% mortality was observed following this procedure. […] The study design is illustrated in Fig. EV1.

pGSK3β-S9 = pGSK3β-S9 protein level in brain (western blot) after HI
Description: Tissues were homogenized (Ultra-Turrax TP, IKA Labortechnik, Wasserburg, Germany) on ice in 300 ml of RIPA lysis buffer (Thermo) per 100 mg of tissue with 1X protease inhibitor cocktail (Thermo) and incubated for 30 min. Lysates were centrifuged at 14,000 × g, 4 °C for 20 min and overall protein concentrations of the supernatant were determined by Pierce BCA Protein Assay (Life Technologies). […] Proteins were transferred to PDVF membrane at 400 mA for 1 h and membrane was blocked for 1 h at 4 °C with 5% BSA in TBS with 3% Tween-20. Membranes were subsequently incubated overnight at 4 °C with primary antibodies (Appendix Table S2) with 3% BSA in TBS with 3% Tween-20. […] Blots were developed with the ECL system (SuperSignal West Pico, Life Technologies) and imaged using a Genegnome imager (Syngene, Cambridge, UK).
All experiments involved litters of postnatal day 10 CD1 mice (P10) bred in-house. […] This was achieved using heating mats, heated incubators and prompt returning of pups to the dam. […] The left common carotid artery was permanently occluded with 8/0 polypropylene suture and the wound closed with tissue glue. The body temperature was maintained using a heating mat. The mice recovered in an incubator at 37 °C and were returned to the dam for 1 h. […] The pups were then immediately returned to the dam. […] All treatments were administered immediately after HI via intraperitoneal administration. […] Treated animal were culled at either 48 h post HI for ST studies or 60 days post HI for LT studies.

human GLP1-R = assay: GLP1-R activation, luciferase reporter in GLP1-R/pCRE-luciferase/CHO-K1 cells; type: cell-based; details: exendin-9 (500 nM) with 1 μM semaglutide or exendin-4
Description: For biological evaluation of GLP-1/Fc for human GLP1-R activation, GLP1-R/pCRE-Luciferase-co-expressed CHO cell lines were established using the lipofectamine method. […] Using a luciferase assay system (Promega – E1500), activity of the GLP1 receptor can be assessed following treatment with GLP1-R agonists for 24 h in 96-well plates.

HIF-1-α = HIF-1-α expression (qPCR) in primary neurons exposed to OGD; type: cell-based, CD1 mice; details: p < 0.0001 exendin-4, p < 0.0001 semaglutide
Description: (§2) Cells were plated at a density of 2 × 10^6 cells/6 cm plate and propagated. At DIV 10–12, neurons were subjected to oxygen–glucose deprivation (OGD) in neurobasal-A medium lacking glucose and incubated in a hypoxia chamber (Billups-Rothenburg Inc., Del Mar, CA, USA) filled with an anoxic atmosphere of 5% CO2 balanced in nitrogen at 37 °C for 2 h. […] Culture medium was assayed after 24 h.
(§3) RNA from neuron cultures or brains was extracted and isolated using RNeasy Mini kit (Qiagen) and first-strand cDNA was generated using High-Capacity cDNA Reverse Transcription kit (Applied Biosystems). Quantitative RT-PCR was carried out using a StepOnePlus (Applied Biosystems) with the SsoAdvanced™ Universal SYBR Green PCR Core Reagents Supermix (Bio-Rad). Primers sequences were designed to detect GLP1-R, CREB, GSK3β, il-10, IL-4, IL-1β, ATF-3, Bcl-2, Bcl-xL (Appendix Table S1). Data from StepOne™ software v2.3 were calibrated to Gapdh, and the relative quantitation of gene expression was performed using the comparative CT method.

ATF-3 = ATF-3 expression (qPCR, immunofluorescence) in primary neurons exposed to OGD; type: cell-based, CD1 mice
Description: as §2, §3
Neuronal cultures (n = 6 per group) were stained by simultaneous overnight incubation with ATF-3 and anti-NeuN antibodies (Appendix Table S2). Representative images were captured using a Zeiss LSM710 confocal microscope and Zen software (Carl Zeiss AG). […] All images were processed using Imaris v.9.1 (Bitplane AG).

CREB = CREB expression (qPCR) in primary neurons exposed to OGD; type: cell-based, CD1 mice; details: p = 0.0016 exendin-4, p = 0.0002 semaglutide
Description: as §2, §3

caspase 3 = assay: Caspase 3 activity in primary neurons exposed to OGD; type: cell-based, CD1 mice
Description: as §2
Culture medium was assayed after treatment at 24 h post-OGD. All samples were processed using Multiplex caspases 3, 8 and 9 activity assay kit as per manufacturer’s instructions (Abcam – Ab219915).

| Compound | blood-brain barrier crossing (GLP1-R; IP, naïve neonatal mice) | entry into the brain and GLP1-R activation, IP vs SC (GLP1-R; p < 0.0001 at 30 mins, p = 0.0024 at 2 h) | blood glucose ([1]; 0.5 µg/g IP, 30 min, p = 0.0002) | blood glucose ([1]; 0.5 µg/g IP, 2 h, p = 0.0003) | blood glucose ([1]; 0.5 µg/g IP, 24 h, p = 0.0003) | blood glucose ([1]; 0.5 µg/g SC, 2 h, p = 0.0180) | blood glucose ([1]; 0.5 µg/g SC, 24 h, p = 0.0289) | hypoglycaemia with oral glucose supplementation ([1]; 2 mg/g oral glucose, semaglutide 0.5 µg/g) | fall in blood glucose ([1]; intraperitoneal, high dose in HI neonatal mice) | mortality / recovery after HI surgery [2] | pGSK3β-S9 protein level (pGSK3β-S9; after HI, western blot, relative to β-actin, single animals, n = 4) | pGSK3β-S9 protein level vs HI saline (pGSK3β-S9; p = 0.0001 both) | effect of antagonist on agonist-induced luciferase expression (human GLP1-R) | HIF-1-α expression vs OGD (HIF-1-α) | ATF-3 average expression/GAPDH (ATF-3; OGD neurons, treatment 2 h after OGD, qPCR, single samples, n = 3, listed as Ex-9) | ATF-3 expression vs OGD (ATF-3; qPCR and immunofluorescence, p = 0.0378 exendin-4, p = 0.0226 semaglutide) | CREB expression vs OGD (CREB) | Caspase 3 activity (caspase 3; 24 h post-OGD, single replicates, n = 5, listed as Ex-9) | effect of antagonist on anti-apoptotic effects of exendin-4 and semaglutide (caspase 3; Bcl-xL, Bcl-2, caspases 3, 8, 9) |
| --- | --- | --- | --- | --- | --- | --- | --- | --- | --- | --- | --- | --- | --- | --- | --- | --- | --- | --- | --- |
| CC[C@H](C)[C@H](NC(=O)[C@H](Cc1ccccc1)NC(=O)[C@H](CCC(=O)O)NC(=O)[C@H](CCCCNC(=O)COCCOCCNC(=O)COCCOCCNC(=O)CC[C@H](NC(=O)CCCCCCCCCCCCCCCCC(=O)O)C(=O)O)NC(=O)[C@H](C)NC(=O)[C@H](C)NC(=O)[C@H](CCC(N)=O)NC(=O)CNC(=O)[C@H](CCC(=O)O)NC(=O)[C@H](CC(C)C)NC(=O)[C@H](Cc1ccc(O)cc1)NC(=O)[C@H](CO)NC(=O)[C@H](CO)NC(=O)[C@@H](NC(=O)[C@H](CC(=O)O)NC(=O)[C@H](CO)NC(=O)[C@@H](NC(=O)[C@H](Cc1ccccc1)NC(=O)[C@@H](NC(=O)CNC(=O)[C@H](CCC(=O)O)NC(=O)C(C)(C)NC(=O)[C@@H](N)Cc1cnc[nH]1)[C@@H](C)O)[C@@H](C)O)C(C)C)C(=O)N[C@@H](C)C(=O)N[C@@H](Cc1c[nH]c2ccccc12)C(=O)N[C@@H](CC(C)C)C(=O)N[C@H](C(=O)N[C@@H](CCCNC(=N)N)C(=O)NCC(=O)N[C@@H](CCCNC(=N)N)C(=O)NCC(=O)O)C(C)C [semaglutide] | cross the blood-brain barrier | more rapid when the agonist was given IP compared with subcutaneously | Statistically significant hypoglycaemia | Statistically significant hypoglycaemia | Statistically significant hypoglycaemia | Statistically significant hypoglycaemia | Statistically significant hypoglycaemia | completely compensated for by oral supplementation with 2 mg/g glucose | drop significantly within 30 min | increased mortality; also recorded: some mice did not recover from HI surgery | 0.3664 and 0.5017 and 0.5395 and 0.3157 | modulated |  |  |  |  |  |  |  |
| exendin 9-39 [exendin-9] |  |  |  |  |  |  |  |  |  |  |  |  | inhibited | inhibited this improvement | 21.697 and 22.687 and 26.651 | inhibited this effect | blocked this effect | 1.4812 and 1.737 and 1.2406 and 1.699 and 1.511 | inhibited the anti-apoptotic effects |

— PMC11178908, “Diabetes drugs activate neuroprotective pathways in models of neonatal hypoxic-ischemic encephalopathy” (EMBO Molecular Medicine, 2024)
